{
  "source": "PubChem BioAssay AID2842",
  "about": "(Southern Research Institute, 2010)",
  "data": [
    {"system": "M. tuberculosis H37Rv growth inhibition", "assay": "Mycobacterium tuberculosis H37Rv growth inhibition, putative kinase inhibitor library, confirmatory dose response (AID 2842);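 also: bacteria incubated one week before Alamar blue readout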", "units": {"IC90": "mg/L"}, "values": [
      {"smiles": "COc1ccc(OC)c2sc(N(CCCn3ccnc3)C(=O)c3ccc(F)cc3)nc12", "IC90": 13.5},
      {"smiles": "CSc1nc2cc(NC(=S)NC(=O)c3ccccc3)ccc2s1", "IC90": 6.89},
      {"smiles": "CCOc1ccc(NCCCn2c(C)cn3c4c(=O)[nH]c(=O)n(C)c4nc23)cc1", "IC90": 20.5},
      {"smiles": "O=C1Nc2ccccc2/C1=C/C(=O)c1ccc([N+](=O)[O-])cc1", "IC90": 47.7},
      {"smiles": "Cc1ccc2sc(NNC(=O)C3COc4ccccc4O3)nc2c1C", "note": "(stereo unspecified)", "IC90": 0.88},
      {"smiles": "Cn1c(/C(C#N)=C/c2c[nH]c3ccccc23)nc2ccccc21", "IC90": 10.2},
      {"smiles": "CCCCOc1ccc(C(=O)N2CC(=O)Nc3ccc(Cl)cc3C2c2ccc(F)cc2)cc1", "note": "(stereo unspecified)", "IC90": 13.1},
      {"smiles": "CCC(=O)Nc1nnc(-c2ccc(C)cc2C)o1", "IC90": "< 0.2"},
      {"smiles": "Cc1ccc(-n2ncc3c(NNC(=O)c4ccc(Cl)cc4Cl)ncnc32)cc1", "IC90": 11.9},
      {"smiles": "CCOC(=O)C(C)Sc1ncnc2c1nnn2Cc1ccc(F)cc1", "note": "(stereo unspecified)", "IC90": 0.51},
      {"smiles": "COc1ccc(NC(=O)CCCN2C(=O)/C(=C\\c3ccco3)SC2=S)cc1", "IC90": 3.3},
      {"smiles": "O=C(Nc1nccs1)c1ccc2c(c1)CCCC2", "IC90": 3.85},
      {"smiles": "COc1cccc(/C=N/Nc2nncc(=O)[nH]2)c1O", "IC90": 0.43},
      {"smiles": "O=C(Nc1nnc(-c2ccncc2)o1)c1cccc(C(F)(F)F)c1", "IC90": 28.1},
      {"smiles": "O=c1c2[nH]c3ccccc3c2nc(SCCN2CCCCC2)n1-c1ccccc1F", "IC90": 14.6},
      {"smiles": "Cc1cc(C)c2nc(NNC(=O)c3ccc(F)cc3)sc2c1", "IC90": 3.98},
      {"smiles": "Cc1ccc2nc(NNC(=O)c3nc4ccccc4s3)sc2c1", "IC90": 6.73},
      {"smiles": "CCSc1ccc(CC(=O)Nc2nnc(-c3ccc4c(c3)OCCO4)o2)cc1", "IC90": 3.57},
      {"smiles": "COc1ccccc1-c1nnc(Nc2nc3ccc(SC)cc3s2)o1", "IC90": 15.9},
      {"smiles": "Cc1cccc2sc(NNC(=O)c3ccc(N(C)C)cc3)nc12", "IC90": 28.6},
      {"smiles": "O=C(Nc1nnc(-c2ccccc2)o1)c1ccco1", "IC90": 2.78},
      {"smiles": "COc1cccc(-c2csc(NC(=O)C3CCCCC3)n2)c1", "IC90": 19.8},
      {"smiles": "Cc1c(C#N)c(N)nc(SCC(=O)c2cc3ccccc3oc2=O)c1C#N", "IC90": 0.42},
      {"smiles": "C=CCOC(=O)COc1ccc2c(-c3cc4ccccc4oc3=O)cc(=O)oc2c1", "IC90": 4.35},
      {"smiles": "COC(=O)c1c2c(n3ccc(C)cc13)C(=O)c1ccccc1C2=O", "IC90": 0.35},
      {"smiles": "COc1cc(-c2nnc(NC(=O)C(C)(C)C)o2)cc(OC)c1OC", "IC90": 14.5},
      {"smiles": "CCOC(=O)c1ccc2nc(Nc3nc4ccc(OC)cc4s3)sc2c1", "IC90": 29},
      {"smiles": "CCc1cccc2sc(N(CCCn3ccnc3)C(=O)/C=C/c3cccs3)nc12", "IC90": 0.83},
      {"smiles": "Cc1cc(C)c2sc(NNC(=O)c3ccc(S(=O)(=O)N4CCCCC4)cc3)nc2c1", "IC90": 29.4},
      {"smiles": "Cc1ccc(-c2nnc(NC(=O)COc3ccccc3)o2)c(C)c1", "IC90": 5.5},
      {"smiles": "CC(C)(C)c1ccc(C(=O)Nc2nnc(-c3ccccn3)o2)cc1", "IC90": 8.06},
      {"smiles": "CCC(=O)Nc1nnc(-c2ccc(OC)cc2)o1", "IC90": 4.39},
      {"smiles": "COc1ccc2nc(N=Nc3c(C)[nH]n(-c4ccccc4)c3=O)sc2c1", "IC90": 7.7},
      {"smiles": "O=C(Nc1nnc(-c2cc(Cl)ccc2Cl)o1)C1CC1", "IC90": 7.42},
      {"smiles": "Cc1ccc2nc(N(CCCn3ccnc3)C(=O)c3ccco3)sc2c1", "IC90": 0.48},
      {"smiles": "CCOC(=O)CNC(=O)CSc1ncnc2c1nnn2Cc1ccccc1F", "IC90": 3.38},
      {"smiles": "COc1ccccc1Cn1cc2c(-c3ccc(F)cc3)nnc-2c2cc(C)ccc21", "IC90": 49.2},
      {"smiles": "CC(C)(C)c1ccc(C(=O)Nc2nnc(-c3ccco3)o2)cc1", "IC90": 1.18},
      {"smiles": "Cc1cc(C)c2sc(NNC(=O)c3cc(-c4cccs4)nc4ccccc34)nc2c1", "IC90": 25.6},
      {"smiles": "Cc1nc2c(ccc3nc(NC(=O)c4ccco4)sc32)s1", "IC90": 35},
      {"smiles": "COc1ccccc1-c1nnc(NC(=O)c2ccc(-c3ccccc3)cc2)o1", "IC90": 1.48},
      {"smiles": "CCc1cccc2sc(N(CCCn3ccnc3)C(=O)c3cc(OC)cc(OC)c3)nc12", "IC90": 10.7},
      {"smiles": "Cc1cccc2nc(NC(=O)c3ccc(Oc4ccccc4)cc3)sc12", "IC90": 8.53},
      {"smiles": "COc1cccc2sc(Nc3nc4ccccc4s3)nc12", "IC90": 3.41},
      {"smiles": "O=c1cnnc(N/N=C/c2ccccc2O)[nH]1", "IC90": 0.46},
      {"smiles": "CC1=NC2C=CC(Cl)=CC2C(c2ccccc2)=C1C(=O)/C=C/c1nc2ccccc2[nH]1", "note": "(stereo unspecified)", "IC90": 0.73},
      {"smiles": "CCCC(=O)Nc1nnc(-c2cc(C)ccc2C)o1", "IC90": 2.09},
      {"smiles": "Cc1ccccc1C(=O)N1N=C(c2c(-c3ccccc3)c3cc(Br)ccc3[nH]c2=O)CC1c1ccccc1", "note": "(stereo unspecified)", "IC90": 1.68},
      {"smiles": "CSc1nnc(C)c(=O)n1COC(=O)/C=C/c1ccc2c(c1)OCO2", "IC90": 11.2},
      {"smiles": "O=C(Nc1nnc(-c2cc(Cl)ccc2Cl)o1)c1ccco1", "IC90": 27.5},
      {"smiles": "O=C(CCc1ccccc1)Nc1nnc(-c2ccc(Cl)s2)o1", "IC90": 2.27},
      {"smiles": "Cc1ccc(C)c(-c2nnc(NC(=O)c3ccccc3Cl)o2)c1", "IC90": 3.12},
      {"smiles": "COc1cccc2sc(N(CCCn3ccnc3)C(=O)c3cccs3)nc12", "IC90": 5.7},
      {"smiles": "Cc1cccc(C(=O)Nc2nnc(-c3cc(C)ccc3C)o2)c1", "IC90": 3.39},
      {"smiles": "Cc1ccc(-c2nnc(NC(=O)c3ccc(S(=O)(=O)N(C)C4CCCCC4)cc3)o2)c(C)c1", "IC90": 39.2},
      {"smiles": "CC1Cc2cc(-c3nn(-c4ccccc4)cc3/C=C3\\SC(=S)NC3=O)ccc2O1", "note": "(stereo unspecified)", "IC90": 1.79},
      {"smiles": "COc1ccc(OC)c2sc(N(CCCn3ccnc3)C(=O)c3ccco3)nc12", "IC90": 6.7},
      {"smiles": "O=C1CN(C(=O)c2cccc(F)c2)C(c2ccc(F)cc2)c2cc(Br)ccc2N1", "note": "(stereo unspecified)", "IC90": 32.1},
      {"smiles": "CC(C)Cn1c(N2CCN(Cc3ccc(Cl)c(Cl)c3)CC2)nc2c1c(=O)[nH]c(=O)n2C", "IC90": 1.43},
      {"smiles": "CSc1nc2ccc3nc(NC(=O)c4cc5ccccc5oc4=O)sc3c2s1", "IC90": 26.1},
      {"smiles": "O=C(Nc1nnc(-c2ccc(Cl)cc2)o1)c1ccco1", "IC90": 1.11},
      {"smiles": "Cc1ccc(C)c(-c2nnc(NC(=O)c3ccc4ccccc4c3)o2)c1", "IC90": 18.8},
      {"smiles": "COc1ccc(Cn2cc(C(=O)c3ccc(C)cc3)c(=O)c3cc(OC)c(OC)cc32)cc1", "IC90": 7.05},
      {"smiles": "Cc1cc(C)c2nc(NNC(=O)c3ccc(N(C)C)cc3)sc2c1", "IC90": 3.23},
      {"smiles": "COc1ccc(N2CC(c3nc4ccccc4n3Cc3ccccc3C)CC2=O)cc1", "note": "(stereo unspecified)", "IC90": 20.1},
      {"smiles": "Cc1ccc(C(=O)Nc2sc3c(c2C(N)=O)CCN(C)C3)cc1C", "IC90": 18.8},
      {"smiles": "O=C(Nc1nnc(-c2ccc3c(c2)CCCC3)o1)C1CCCCC1", "IC90": 40.2},
      {"smiles": "COc1cc(OC)cc(C(=O)N(CCCn2ccnc2)c2nc3c(F)cccc3s2)c1", "IC90": 20.6},
      {"smiles": "Cc1cc(NS(=O)(=O)c2ccc(NC(=O)CCCOc3ccc(Cl)cc3)cc2)no1", "IC90": 19.1},
      {"smiles": "O=C(O)c1ccccc1NC1=C(Cl)C(=O)N(c2cccc(Cl)c2)C1=O", "IC90": 21.3},
      {"smiles": "O=C(CS(=O)(=O)c1ccccc1)Nc1cccc2c1C(=O)c1ccccc1C2=O", "IC90": 20.9},
      {"smiles": "O=C(Nc1nnc(C2=COCCO2)o1)c1ccc(Cc2ccccc2)cc1", "IC90": 28.1},
      {"smiles": "Cc1cccn2c(=O)c3cc(C(=O)NC(C)c4ccccc4)c(=N)n(C4CCCCC4)c3nc12", "note": "(stereo unspecified)", "IC90": 3.05},
      {"smiles": "CC(C)N1CCc2c(sc(NC(=O)c3nc4ccccc4s3)c2C(N)=O)C1", "IC90": 12.9},
      {"smiles": "COc1ccc(C(=O)N(CCCn2ccnc2)c2nc3c(C)c(C)ccc3s2)cc1OC", "IC90": 14.2},
      {"smiles": "Cc1cccc(-c2nc(SCC(=O)Nc3ccc4c(c3)OCO4)c(-c3ccccc3)[nH]2)c1", "IC90": 9.98},
      {"smiles": "CCCCOc1cccc(C(=O)Nc2nnc(-c3ccc(C)cc3C)o2)c1", "IC90": 2.63},
      {"smiles": "Cc1ccc(C)c(-c2csc(NC(=O)c3ccc([N+](=O)[O-])s3)n2)c1", "IC90": 3.37},
      {"smiles": "O=C(Cc1ccccc1)N(CCCn1ccnc1)c1nc2c(F)cccc2s1", "IC90": 7.4},
      {"smiles": "O=C(Nc1nc(-c2ccc3c(c2)OCCO3)cs1)C1CCCCC1", "IC90": 11.7},
      {"smiles": "COc1cccc(-c2nnc(NC(=O)/C=C/c3cccs3)o2)c1", "IC90": 3.55}
    ]}
  ]
}
